Series [1] concerns CCL2/MCP-1. It counts as cell-based, human.
Series [2] relates to IL-8. Put plainly: IL-8 production by human keratinocytes. It counts as cell-based. The conditions noted are these: basal, FIG. 13.
Series [3] is described as follows: Skin penetration, Franz diffusion cell. It counts as in vitro ADME, porcine. The conditions noted are these: after 18 hours at 32° C.; 400 μg applied; LABRASOL/Plo-gel formulation; FIG. 18. The protocol:
Skin penetration of formulations described herein was measured according to the following procedure: the formulation was LABRASOL® (caprylocaproyl polyoxyl-8 glycerides), Plo-gel (Poloxomer 407, Lecithin, isopropyl palmitate). The formulation is applied to the center part of the circle and is rubbed to the skin using a […]. The sample is mounted to the top of a Franz diffusion cell with the outer layer of the skin facing upward. The receptor medium of the Franz cell is filled with phosphate buffer. The cap of the cell is mounted and clamped. This construct is placed inside the incubator/shaker for 18 hours at 32° C. (FIG. 14).

The test system of series [4] is IL-6. Put plainly: IFNγ/TNFα-induced IL-6 production by human keratinocytes. The class given is cell-based. The note with it: FIG. 13.
The test system of series [5] is keratins K5, K6, K14, K15, K16, K17. Put plainly: Keratin expression in HaCaT keratinocytes by Western blot. It counts as cell-based, human. The note with it: for expression of K15: Western blot, cells pretreated with IFNγ/TNFα, FIG. 6 right; for K5 protein expression / K14 protein expression / K15 protein expression / K16 protein expression / K17 protein expression: post-differentiating human keratinocyte cells, concentration dependent effect, FIG. 20. The protocol: Cell culturing was performed as follows: HaCaT, human immortalized keratinocyte cell line was cultured in Dulbecco's Modified Eagle Medium (DMEM; Life Technologies Hungary Ltd.) supplemented with 10 (V/V) % fetal bovine serum (FBS; Life Technologies Hungary Ltd.) and antibiotics mixture (penicillin and streptomycin in 1:100; PAA Laboratories GmbH, Pasching, Austria) and Fungizone® Antimicotic (in 1:200; Life Technologies Hungary Ltd.) respectively.
Cells were cultured at 37° C. in humidified, 5% CO2-containing atmosphere, the medium was changed every other day, and cells were sub-cultured at 70-80% confluence in all cases. For the drug treatment, the medium was changed every day.
Western blotting was used to determine the expression of keratins in HaCaT cells. The initial cell count was 2×10^5 cells/per Petri dish in “small” (d=35 mm) Petri dishes in 1.5 mL culture medium (DMEM supplemented with FBS (10%), antibiotics and antimycotics). Cells were harvested at the following stages: preconfluent (proliferating) and postconfluent (differentiating). The combinations employed for Western blotting were cannabidiols:cannabinol (1:0.1 μM), cannabidiols:cannabinol (0.1:1 μM), and cannabidiols:cannabinol (1:1 μM). The genes whose expression was investigated by Western blotting were GAPDH or β-actin as internal controls and (K1), K5, K6, (K10), K14, K15, K16, and K17. Protein samples were used at 5 μl/well. The standards used were PageRuler Plus Prestained (Pierce). Electrophoresis was at 100 volts.
Transfer was performed using the Trans-Blot® Turbo™ Transfer System (1.3 A, 25 V, 7 min). The primary antibody was used at 1:100 in 5% milk containing PBS; overnight at 4° C.; the primary antibody was guinea pig anti-human keratins: anti human Keratin 1, Keratin 5, Keratin 6, Keratin 14, Keratin 15, Keratin 16, Keratin 17 (from Lutz Langbein; predicted band: […]). The secondary antibody was used at 1:1000 in 5% milk containing PBS; 1 hr at RT; the secondary antibody was HRP-conjugated goat anti-Guinea Pig IgG (Santa Cruz). The loading controls were Rabbit anti-human GAPDH (Novus Biologicals; Cat. No.: NB300-322; predicted band: ˜37 kDa) or anti-human β-actin (Sigma-Aldrich; Cat. No.: A2668; predicted band: ˜42 kDa) 1:1000 in 5% milk containing PBS. HRP-conjugated goat anti-rabbit IgG Fc-segment (BioRad 170-6515; 1:1000) was used.
For statistical analysis, data were analyzed and graphs were plotted by using Origin Pro Plus 6.0 software (Microcal, Northampton, MA, USA), using Student's two-tailed two samples t-test and P<0.05 values were regarded as significant differences.
(In western blotting, separated proteins are transferred to a membrane and probed.)

Series [6] has as its system CB1 receptor. The series can be described thus: CB1 receptor expression by human fibroblasts under TGFβ1 (western blot). It counts as cell-based. The conditions noted are these: CB1 receptor/HSP90 ratio, FIG. 22.
The test system of series [7] is αSMA. The series can be described thus: TGFβ1-induced αSMA expression in human fibroblasts (immunoblot). It counts as cell-based. The note with it: αSMA/HSP90 ratio, FIG. 23. The protocol: Experimental Design: HaCaT and HFL-1 cells cultured in 24-well plates (1×10^5 cells/well/mL) in DMEM supplemented with 1% FBS and antibiotics/antimycotics in the presence of INM-501, INM-509, INM-505, INM-506, INM-513 (cannabigerol (CBG)), INM-517, HU-210 ((6aR,10aR)-9-(hydroxymethyl)-6,6-dimethyl-3-(2-methyloctan-2-yl)-6H,6aH,7H,10H,10aH-benzo[c]isochromen-1-ol)), and SR144528 (all at 1 μM concentration, EchoPharmaceuticals, AT Nijmegen, The Netherlands, Cayman Chemical, Ann Arbor, MI) alone or with simultaneously added human recombinant TGFβ1 at 10 and 20 ng/ml concentrations for 72 hr. Cell culture supernatants were removed and cells were lyzed with Cell Protein Extraction Buffer supplemented with Proteinases/Phosphatases Inhibitors Cocktail. […]
(§1) Assay Procedures: EMT induced by TGFβ1 in keratinocytes was analyzed by expression of human E-Cadherin (E-CDH) and Cellular Fibronectin (FBN-EDA). Fibroblast activation and differentiation was determined by αSMA expression. E-CDH, FBN-EDA and αSMA proteins were determined by SDS-PAGE and Immunobloting using mouse anti-human E-CDH, FBN-EDA and αSMA monoclonal antibodies. […] Density of the bands was quantified in two infrared channels independently using Odyssey software 2.1 (LI-COR Biosciences). The results are expressed as a protein/β-tubulin/HSP90 density ratio.

Series [8] relates to fibronectin-EDA. The series can be described thus: TGFβ1-induced fibronectin-EDA expression in HaCaT keratinocytes (immunoblot). It counts as cell-based. The note with it: human keratinocytes; fibronectin-EDA/β-tubulin ratio; FIG. 21, 25.
Source text: (§2) For western blotting in the wound healing analysis, epithelial-mesenchymal transition (EMT) is a critical element of epithelial biology, cancer development, and fibrosis. Chronic activation of TGF-β-signaling in the skin ultimately leads to fibrosis (keloid). EMT of keratinocytes is adaptive response in the normal wound healing process. It is characterized by decrease of E-cadherin (important element of keratinocyte integrity and tight junction formation) expression and upregulation of cellular fibronectin (Fibronectin-EDA) production. The latter is a very important protective element of epithelial cells during mucosal tissue repairs.
(§3) Total protein extracts were prepared from synchronized HaCaT cells at different times. […]
as §1

Series [9] has as its system E-cadherin. Put plainly: TGFβ1-induced E-cadherin inhibition in HaCaT keratinocytes (immunoblot). The class given is cell-based. The note with it: human keratinocytes; E-cadherin/β-tubulin ratio; FIG. 21, 24.
Source text: as §2, §3, §1

Series [10] deals with keratins K5, K6, K14, K15, K16, K17. The series can be described thus: Keratin expression in HaCaT keratinocytes by Western blot. It counts as cell-based, human. The conditions noted are these: 10 μM.

The structures appear in SMILES notation. Entries after “also recorded” stand apart in the source; their conditions may differ. Read-outs that look alike come from different tables or passages of the source.

Consider 8 compounds from patent US12042479B2, “Use of topical formulations of cannabinoids in the treatment of epidermolysis bullosa and related connective tissue disorders” (priority 2016, dated 2024).

On to `CCCCCc1cc(O)c(C/C=C(\C)CCC=C(C)C)c(O)c1` [INM-513, cannabigerol], for which the “IFNγ/TNFα-induced CCL2/MCP-1 production” value in series [1] is given as “upregulated”.
Regarding `CCCCCCC(C)(C)c1cc(O)c2c(c1)OC(C)(C)[C@@H]1CC=C(CO)C[C@@H]21` [HU-210, (6aR,10aR)-9-(hydroxymethyl)-6,6-dimethyl-3-(2-methyloctan-2-yl)-6H,6aH,7H,10H,10aH-benzo[c]isochromen-1-ol], in [1], the “IFNγ/TNFα-induced CCL2/MCP-1 production” value is on record as “upregulated; also recorded: highest effect; also recorded: increase”.
For `C=C(C)[C@@H]1CCC(C)=C[C@H]1c1c(O)cc(CCCCC)cc1O` [INM-505, cannabidiols], the IL-8 production entry in series [2] is “highly selective inhibitory effect”. For the same compound, the “location of cannabinoid molecules in skin” value in [3] was “located in keratinocytes and basal cells”. Besides, the “production of IL-6 by IFNγ/TNFα” value in [4] is “attenuate”. Also, in [5], the “expression of K15” value is “promote”, the K5 protein expression result is “generally increases”, the K14 protein expression entry is “generally increases” and the K15 protein expression result was “generally increases”. Besides, in [5], the K16 protein expression result was “generally increases” and the K17 protein expression result is on record as “generally increases”. For the same compound, the “IFNγ/TNFα-induced CCL2/MCP-1 production” value in series [1] was “upregulated; also recorded: increase”.
Turning to `COc1ccc(C(=O)c2c(C)n(CCN3CCOCC3)c3cc(I)ccc23)cc1` [AM630, 6-iodopravadoline], in series [6], the “cell responsiveness to TGFβ1” value is listed as “modify”.
Take `Cc1c(C(=O)NN2CCCCC2)nn(-c2ccc(Cl)cc2Cl)c1-c1ccc(I)cc1` [AM251, N-(piperidin-1-yl)-5-(4-iodophenyl)-1-(2,4-dichlorophenyl)-4-methyl-1H-pyrazole-3-carboxamide]: the “cell responsiveness to TGFβ1” value in series [6] was “modify”. Moreover, the “TGFβ1-induced αSMA expression (TGFβ1-responsiveness)” value in series [7] is listed as “upregulating”.
Regarding `CCCCCc1cc(O)c2c(c1)OC(C)(C)[C@@H]1CCC(C)=C[C@@H]21` [Δ^9-tetrahydrocannabinol], in [1], the “IFNγ/TNFα-induced CCL2/MCP-1 production” value is reported as “no significant effects” and the “basal CCL2 production” value is “no significant effects”.
Take `CCCCCc1cc(O)c2c(c1)OC(C)(C)c1ccc(C)cc1-2` [INM-517, 6,6,9-trimethyl-3-pentylbenzo[c]chromen-1-ol]: the “TGF-β-induced fibronectin-EDA expression” value in series [8] is reported as “preserving”. Moreover, the “TGF-β-induced downregulation of E-cadherin” value in series [9] is “strong and potent effect”. Further, in series [5], the “expression of K15” value is “promote”, the K5 protein expression entry is reported as “generally increases”, the K14 protein expression entry is on record as “generally increases” and the K15 protein expression entry is on record as “generally increases”. Further, in series [5], the K16 protein expression entry is listed as “generally increases” and the K17 protein expression entry was “generally increases”. Besides, the K14 gene expression entry in series [10] is on record as “downregulated”.
As for `Cc1ccc(Cn2nc(C(=O)N[C@@H]3C(C)(C)[C@@H]4CC[C@@]3(C)C4)cc2-c2ccc(Cl)c(C)c2)cc1` [SR144528, 5-(4-chloro-3-methylphenyl)-1-[(4-methylphenyl)methyl]-N-[(1S,2S,4R)-1,3,3-trimethylbicyclo[2.2.1]heptan-2-yl]-1H-pyrazole-3-carboxamide], the “basal CCL2 production” value in series [1] (HaCaT, 72 hr, method prints 1 mM, b249 prints 1 μM) is reported as “did not significantly change”. In addition, the “IFNγ/TNFα-induced CCL2/MCP-1 production” value in series [1] (HaCaT, IFNγ and TNFα 10 ng/ml, 72 hr, method prints 1 mM, b249 prints 1 μM) was “did not significantly change”.
